# Results published in patent publication US20260242330A1, “USE OF AN AMANTADINE MONONITRATE COMPOUND IN MANUFACTURE OF A MEDICAMENT FOR THE PREVENTION AND TREATMENT OF HYPERTENSION” (GUANGZHOU MAGPIE PHARMACEUTICALS CO., LTD., priority 2022, published 2026).
# Experiments:
# [1] = test system: blood pressure of subjects; assay: Effect of single administration of MN-08 on blood pressure of subjects (clinical trial); type: in vivo, human
# From the text: All subjects in the following embodiments have signed informed consent forms, which comply with medical ethics regulations. According to the relevant provisions of Chinese Guidelines for the Prevention and Treatment of Hypertension (2018 Revision), the values measured for hypertension are the average blood pressure measured three times on a different day without the use of antihypertensive drugs. Therefore, in this embodiment, the baseline blood pressure of the subjects before administration is set as the average blood pressure measured at three different times: screening period, occupancy period, and 1 hour before administration, as shown in Tables 1 to 3.
# In the clinical trial of amantadine mononitrate compound MN-08, it is investigated the effect of MN-08 on blood pressure in subjects. The experiments were carried out to analyze the blood pressure status of subjects in both the single dose and multiple dose groups.
# During a single administration, each dose group is required to fast for at least 10 hours before administration, without water deprivation overnight, and on the day of administration, the medication is taken on an empty stomach at around 8 a.m., with 240 mL of water administered.
# [2] = test system: blood pressure in subjects with a DP≥90 mmHg; assay: Effect of MN-08 on blood pressure in subjects with a DP≥90 mmHg; type: in vivo, human; conditions: single or multiple administration as in Example 2
# From the text: From this, it can be seen that making diastolic pressure drop more than systolic pressure drop is the characteristic of MN-08.
smiles,measurement,setting,value
CCC12CC3CC(N)(C1)CC(CO[N+](=O)[O-])(C3)C2 (stereo not drawn) [MN-08],DP,"[1]; Subject 7, 78 mg single dose, 12 hrs after adm. (D 1), baseline 74 mmHg",60 mmHg
same,SP,"[1]; Subject 7, 78 mg single dose, 12 hrs after adm. (D 1), baseline 106 mmHg",102 mmHg
same,DP (reduce amplitude),"[1]; Subject 7, 78 mg single dose, 12 hrs after adm. (D 1), vs baseline 74 mmHg",−18.9%
same,SP (reduce amplitude),"[1]; Subject 7, 78 mg single dose, 12 hrs after adm. (D 1), vs baseline 106 mmHg",−3.8%
same,DP,"[1]; Subject 8, 96 mg single dose, 6 hrs after adm. (D 1), baseline 69 mmHg",51 mmHg
same,SP,"[1]; Subject 8, 96 mg single dose, 6 hrs after adm. (D 1), baseline 101 mmHg",79 mmHg
same,DP (reduce amplitude),"[1]; Subject 8, 96 mg single dose, 6 hrs after adm. (D 1), vs baseline 69 mmHg",−26.1%
same,SP (reduce amplitude),"[1]; Subject 8, 96 mg single dose, 6 hrs after adm. (D 1), vs baseline 101 mmHg",−21.8%
same,DP,"[1]; Subject 8, 96 mg single dose, 12 hrs after adm. (D 1), baseline 69 mmHg",61 mmHg
same,SP,"[1]; Subject 8, 96 mg single dose, 12 hrs after adm. (D 1), baseline 101 mmHg",87 mmHg
same,DP (reduce amplitude),"[1]; Subject 8, 96 mg single dose, 12 hrs after adm. (D 1), vs baseline 69 mmHg",−11.6%
same,SP (reduce amplitude),"[1]; Subject 8, 96 mg single dose, 12 hrs after adm. (D 1), vs baseline 101 mmHg",−13.8%
same,DP,"[1]; Subject 9, 96 mg single dose, 6 hrs after adm. (D 1), baseline 78 mmHg",63 mmHg
same,SP,"[1]; Subject 9, 96 mg single dose, 6 hrs after adm. (D 1), baseline 121 mmHg",105 mmHg
same,DP (reduce amplitude),"[1]; Subject 9, 96 mg single dose, 6 hrs after adm. (D 1), vs baseline 78 mmHg",−19.2%
same,SP (reduce amplitude),"[1]; Subject 9, 96 mg single dose, 6 hrs after adm. (D 1), vs baseline 121 mmHg",−13.2%
same,DP,"[1]; Subject 9, 96 mg single dose, 12 hrs after adm. (D 1), baseline 78 mmHg",68 mmHg
same,SP,"[1]; Subject 9, 96 mg single dose, 12 hrs after adm. (D 1), baseline 121 mmHg",103 mmHg
same,DP (reduce amplitude),"[1]; Subject 9, 96 mg single dose, 12 hrs after adm. (D 1), vs baseline 78 mmHg",−12.8%
same,SP (reduce amplitude),"[1]; Subject 9, 96 mg single dose, 12 hrs after adm. (D 1), vs baseline 121 mmHg",−14.8%
same,DP,"[1]; Subject 10, 114 mg single dose, 6 hrs after adm. (D 1), baseline 75 mmHg",62 mmHg
same,SP,"[1]; Subject 10, 114 mg single dose, 6 hrs after adm. (D 1), baseline 115 mmHg",92 mmHg
same,DP (reduce amplitude),"[1]; Subject 10, 114 mg single dose, 6 hrs after adm. (D 1), vs baseline 75 mmHg",−17.3%
same,SP (reduce amplitude),"[1]; Subject 10, 114 mg single dose, 6 hrs after adm. (D 1), vs baseline 115 mmHg",−20.0%
same,DP,"[1]; Subject 10, 114 mg single dose, 12 hrs after adm. (D 1), baseline 75 mmHg",57 mmHg
same,SP,"[1]; Subject 10, 114 mg single dose, 12 hrs after adm. (D 1), baseline 115 mmHg",90 mmHg
same,DP (reduce amplitude),"[1]; Subject 10, 114 mg single dose, 12 hrs after adm. (D 1), vs baseline 75 mmHg",−24.0%
same,SP (reduce amplitude),"[1]; Subject 10, 114 mg single dose, 12 hrs after adm. (D 1), vs baseline 115 mmHg",−21.7%
same,DP,"[1]; Subject 11, 114 mg single dose, 6 hrs after adm. (D 1), baseline 85 mmHg",68 mmHg
same,SP,"[1]; Subject 11, 114 mg single dose, 6 hrs after adm. (D 1), baseline 126 mmHg",119 mmHg
same,DP (reduce amplitude),"[1]; Subject 11, 114 mg single dose, 6 hrs after adm. (D 1), vs baseline 85 mmHg",−20.0%
same,SP (reduce amplitude),"[1]; Subject 11, 114 mg single dose, 6 hrs after adm. (D 1), vs baseline 126 mmHg",−5.6%
same,DP,"[1]; Subject 11, 114 mg single dose, 12 hrs after adm. (D 1), baseline 85 mmHg",68 mmHg
same,SP,"[1]; Subject 11, 114 mg single dose, 12 hrs after adm. (D 1), baseline 126 mmHg",105 mmHg
same,DP (reduce amplitude),"[1]; Subject 11, 114 mg single dose, 12 hrs after adm. (D 1), vs baseline 85 mmHg",−20.0%
same,SP (reduce amplitude),"[1]; Subject 11, 114 mg single dose, 12 hrs after adm. (D 1), vs baseline 126 mmHg",−16.7%
same,DP,"[1]; Subject 12, 132 mg single dose, 6 hrs after adm. (D 1), baseline 78 mmHg",59 mmHg
same,SP,"[1]; Subject 12, 132 mg single dose, 6 hrs after adm. (D 1), baseline 123 mmHg",120 mmHg
same,DP (reduce amplitude),"[1]; Subject 12, 132 mg single dose, 6 hrs after adm. (D 1), vs baseline 78 mmHg",−24.4%
same,SP (reduce amplitude),"[1]; Subject 12, 132 mg single dose, 6 hrs after adm. (D 1), vs baseline 123 mmHg",−2.4%
same,DP,"[1]; Subject 12, 132 mg single dose, 12 hrs after adm. (D 1), baseline 78 mmHg",60 mmHg
same,SP,"[1]; Subject 12, 132 mg single dose, 12 hrs after adm. (D 1), baseline 123 mmHg",105 mmHg
same,DP (reduce amplitude),"[1]; Subject 12, 132 mg single dose, 12 hrs after adm. (D 1), vs baseline 78 mmHg",−23.1%
same,SP (reduce amplitude),"[1]; Subject 12, 132 mg single dose, 12 hrs after adm. (D 1), vs baseline 123 mmHg",−14.6%
same,DP,"[1]; Subject 13, 132 mg single dose, 6 hrs after adm. (D 1), baseline 68 mmHg",54 mmHg
same,SP,"[1]; Subject 13, 132 mg single dose, 6 hrs after adm. (D 1), baseline 106 mmHg",97 mmHg
same,DP (reduce amplitude),"[1]; Subject 13, 132 mg single dose, 6 hrs after adm. (D 1), vs baseline 68 mmHg",−20.6%
same,SP (reduce amplitude),"[1]; Subject 13, 132 mg single dose, 6 hrs after adm. (D 1), vs baseline 106 mmHg",−8.5%
same,DP,"[1]; Subject 13, 132 mg single dose, 12 hrs after adm. (D 1), baseline 68 mmHg",56 mmHg
same,SP,"[1]; Subject 13, 132 mg single dose, 12 hrs after adm. (D 1), baseline 106 mmHg",96 mmHg
same,DP (reduce amplitude),"[1]; Subject 13, 132 mg single dose, 12 hrs after adm. (D 1), vs baseline 68 mmHg",−17.6%
same,SP (reduce amplitude),"[1]; Subject 13, 132 mg single dose, 12 hrs after adm. (D 1), vs baseline 106 mmHg",−9.4%
same,effect of a single dose on blood pressure,"[1]; all dose groups (6, 12, 42, 60, 78, 96, 114, 132 mg), especially diastolic pressure",can reduce the blood pressure
same,effect on diastolic pressure,[2],significant effect on reducing diastolic pressure
